From patent US20160000823A1, “METHODS AND COMPOSITIONS FOR IMPROVING HEMOSTASIS” (Mast Therapeutics, Inc., priority 2014, published 2016)
“Also recorded” adds a separate entry of the source.

Tests used:
[1] = test system: t-PA induced bleeding; experiment: Rat tail bleeding model with tissue plasminogen activator; type: in vivo
Method: Tissue plasminogen activator (t-PA) is used clinically to lyse occlusive thrombi. Bleeding complications that result from the unwanted lysis of hemostatic clots limits its use. TA is a synthetic derivative of the amino acid lysine that acts as a fibrinolytic inhibitor and is used clinically to antagonize unwanted bleeding. The effect oft-PA induced bleeding and its antagonism with TA was assessed in a rat tail bleeding model. Rats were anaesthetized by intraperitoneal injection of pentobarbital at 50 mg/kg. The thrombolytic agent t-PA was intravenously injected at a dose of 1 mg/kg, alone or in combination with TA at a dose of 5 mg/kg or 10 mg/kg. Another group of rats were administered 5 mg/kg TA alone. Control rats were administered saline. Each treatment group contained 7-10 rats.
Following treatment, rat tails were amputated about 4 mm from the tip and the tails were immersed in normal saline at 37° C. The bleeding time was determined as the time for complete cessation of blood flow from the amputated tail by visual inspection.
The relative ability of P188 to antagonize t-PA induced bleeding (compared to TA) was studied by evaluating P188 in the same rat tail bleeding model as described in Example 3. […]
Rat tails were amputated about 4 mm from the tip and the tails were immersed in normal saline at 37° C. and bleeding time was assessed as described in Example 3. […]

[2] = test system: embolic middle cerebral artery occlusion; experiment: Embolic MCAO stroke model: modified neurological severity score (mNSS); type: in vivo, rat; details: same schedule
Method: (§1) tPA is an effective treatment for acute stroke. Its use is limited by a narrow treatment window (3.5-4.5 hours from onset of stroke) and a greater risk of intracerebral hemnorrhage. […] To show this, the effects of administration of tPA alone, and tPA in combination with P188 were studied in a rat model of embolic middle cerebral artery occlusion. Male Wistar rats (N=10), 3-4 months old and weighing 350-400 g were subjected to embolic middle cerebral artery occlusion (MCAO) as described by Zhang (Zhang R L et al. A rat model of focal embolic cerebral ischemia. Brain Res. 1997, 766:83-92). Following occlusion, neurologic deficit was assessed 30 minutes after MCAO using a 5 point neurological scale (Longa scale; Longa et al., (1989) Stroke 20:84-91).
(§2) To compare the two treatments, P188 in combination with tPA and tPA alone were administered according to the schedule provided in Table 2. The dose of P188 was administered in a volume of 1.0 ml infused over a period of 1 hr by intravenous (IV) infusion via a tail vein. […] At 1 and 7 days after stroke onset (MCAO), clinical neurological function was assessed using the adhesive removal test and modified neurological severity score (mNSS) (Li Y, Chen J, Wang L, Lu M, Chopp M. Treatment of stroke with intracarotid administration of marrow stromal cells. Neurology 2001, 56: 1666-1672). […]

[3] = test system: embolic middle cerebral artery occlusion; experiment: Embolic MCAO stroke model: adhesive removal test; type: in vivo, rat
Method: as §1, §2

[4] = test system: embolic middle cerebral artery occlusion; experiment: Embolic MCAO stroke model: gross hemorrhage; type: in vivo, rat; details: day 7 after MCAO, n=10 per group
Method: as §1
as §2, with “2.” for “2. The dose of P188 was administered in a volume of 1.0 ml infused over a period of 1 hr by intravenous (IV) infusion via a tail vein.”
The harvested brains also were assessed for the incidence of gross hemorrhage, defined as blood evident to the unaided eye on the H&E stained coronal sections. […]

[5] = test system: embolic middle cerebral artery occlusion; experiment: Embolic MCAO stroke model: lesion volume; type: in vivo, rat; details: day 7 after MCAO, H&E coronal sections
Method: as §1, §2

Row | Compound | t-PA induced bleeding ([1]; t-PA 1 mg/kg IV in combination with TA 5 or 10 mg/kg (FIG. 14)) | bleeding time of amputated tail ([1]; t-PA alone 1 mg/kg IV, versus saline) | average mNSS score ([2]; 1 day after MCAO) | average mNSS score ([2]; 7 days after MCAO) | average time to tape removal ([3]; day 1 after MCAO, tPA 10 mg/kg IV at 4 hr, P188 300 mg/kg IV at 3.5 hr and 2,000 mg/kg ip at 9.5 hr) | average time to tape removal ([3]; day 7 after MCAO, same schedule) | animals exhibiting gross hemorrhage [4] [%] | average lesion volume [5]
1 | NC[C@H]1CC[C@H](C(=O)O)CC1 [TA, tranexamic acid, reference compound] | dose dependent reduction |  |  |  |  |  |  | 
2 | tissue plasminogen activator [t-PA] |  | marked prolongation of bleeding time; also recorded: increased bleeding time | approximately 10.5 | approximately 8.5 | approximately 120 seconds | approximately 100 seconds | 30 | approximately 35 % of contralateral hemisphere
